Test results: US9988343B2, “Inhibitors of histone deacetylase” (Dana-Farber Cancer Institute, Inc., priority 2013, dated 2018)
Where two headings read alike, the source gives them in different places.

Experiments:
[1] = target: HDAC1 (Homo sapiens, UniProt Q13547); assay: HDAC1 inhibitory activity (IC50); assay type: biochemical
Experimental: (§1) HDAC inhibitor compounds designed and synthesized in accordance with the present invention were tested for their inhibitor activity against several different HDAC isoforms.

[2] = target: HDAC2 (Homo sapiens, UniProt Q92769); assay: HDAC2 inhibitory activity (IC50); assay type: biochemical
Experimental: as §1

[3] = target: T1, HDAC6 (Homo sapiens, UniProt Q9UBN7); assay: HDAC6 inhibitory activity (IC50); assay type: biochemical
T1 sequence (Q9UBN7 1-1215): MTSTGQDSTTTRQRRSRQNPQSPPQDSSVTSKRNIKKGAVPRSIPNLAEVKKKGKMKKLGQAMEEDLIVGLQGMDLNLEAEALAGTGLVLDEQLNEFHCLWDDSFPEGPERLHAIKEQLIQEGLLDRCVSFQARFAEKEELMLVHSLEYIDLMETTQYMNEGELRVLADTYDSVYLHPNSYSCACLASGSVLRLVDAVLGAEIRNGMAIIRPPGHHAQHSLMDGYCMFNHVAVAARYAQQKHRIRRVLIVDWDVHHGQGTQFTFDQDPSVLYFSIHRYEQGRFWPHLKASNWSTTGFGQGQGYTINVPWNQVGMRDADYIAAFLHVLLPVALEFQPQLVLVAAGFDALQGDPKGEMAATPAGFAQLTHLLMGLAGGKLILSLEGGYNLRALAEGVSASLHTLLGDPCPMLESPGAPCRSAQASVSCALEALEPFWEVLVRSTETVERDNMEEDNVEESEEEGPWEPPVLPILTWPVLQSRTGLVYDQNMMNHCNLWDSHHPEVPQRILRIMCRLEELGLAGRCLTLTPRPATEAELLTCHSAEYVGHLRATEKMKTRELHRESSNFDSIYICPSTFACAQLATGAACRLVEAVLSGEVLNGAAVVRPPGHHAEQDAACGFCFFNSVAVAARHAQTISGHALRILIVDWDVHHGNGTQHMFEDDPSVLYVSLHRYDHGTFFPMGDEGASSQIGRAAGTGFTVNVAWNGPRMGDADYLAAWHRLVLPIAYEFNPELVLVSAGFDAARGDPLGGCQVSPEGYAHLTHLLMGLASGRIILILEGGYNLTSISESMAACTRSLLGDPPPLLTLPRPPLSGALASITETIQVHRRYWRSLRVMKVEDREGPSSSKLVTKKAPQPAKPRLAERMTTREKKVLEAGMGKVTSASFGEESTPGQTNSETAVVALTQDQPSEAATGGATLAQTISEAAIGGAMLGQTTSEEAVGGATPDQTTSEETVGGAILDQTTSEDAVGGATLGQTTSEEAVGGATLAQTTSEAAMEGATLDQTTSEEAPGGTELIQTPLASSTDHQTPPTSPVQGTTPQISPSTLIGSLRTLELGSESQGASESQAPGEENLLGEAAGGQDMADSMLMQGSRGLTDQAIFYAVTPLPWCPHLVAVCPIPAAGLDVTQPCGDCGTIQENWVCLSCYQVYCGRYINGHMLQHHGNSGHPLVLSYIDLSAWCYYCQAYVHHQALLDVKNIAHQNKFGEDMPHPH
Experimental: as §1

[4] = test system: MM cell lines; assay: Cell growth inhibition assay (MTT) in MM cell lines; assay type: cell-based, human; details: MM.1S, RPMI8226, U266, OPM1, H929; 1.875-30 μM, 48 h and 72 h, MTT (FIG. 6A)
Experimental: To measure proliferation of MM cells, the rate of DNA synthesis was measured by ^3[H]-thymidine (Perkin-Elmer) uptake.
The growth inhibitory effect of Merck60 (HDACL, 2 inhibitor previously reported as compound #60 by Method et al. Bioorg. Med. Chem. Lett. 2008. 18(3):973-8) versus MS275 (HDAC1, 2, 3 inhibitor) was examined in MM cell lines using MTT assay. MM cells were cultured with Merck60 (left panel) or MS275 (right panel) for 48 hours. Cell growth was assessed by MTT assay. All experiments were performed 3 times in quadruplicate. Data represent mean±SD.
Cell growth was assessed by MTT assay. All experiments were performed 3 times in quadruplicate. Data represent mean±SD.

[5] = test system: RPMI8226 cells; assay: Combination with bortezomib, MTT cytotoxicity, combination index; assay type: cell-based, human; details: for CI (combination index): RPMI8226, MTT, 24 h
Experimental: The combined effect of drugs was analyzed by isobologram analysis using the Compusyn software program (ComboSyn, Inc.); a combination index (CI)<1 is indicative of a synergistic effect.
All experiments were performed 3 times in quadruplicate. Data represent mean±SD (FIG. 7D).

[6] = test system: primary tumor cells from MM patients; assay: MTT growth assay in primary tumor cells from MM patients; assay type: cell-based, human; details: 30 μM, 72 hours, MTT (FIG. 6B)
Experimental: (§2) BM specimens were obtained from patients with MM, and mononuclear cells (MNCs) were separated by Ficoll-Hipaque density sedimentation. Primary CD138+ plasma cells from MM patients were obtained using negative selection, as in previous studies. […] CD138-BMMNCs were used to establish long-term BMSC cultures, as previously described. […] Peripheral blood mononuclear cells were collected from healthy volunteers to obtain mononuclear cells (PBMCs). All procedures were performed with IRB-approved (Dana-Farber Cancer Institute) protocols and informed consent, and in accordance with the Declaration of Helsinki protocol. […] Cell growth was then assessed by MTT assay. Data represents mean±SD from triplicates cultures (FIG. 6B). […] Cell growth was assessed by MTT assay. The data represents mean±SD from triplicate cultures (FIG. 6C).

[7] = test system: PBMCs; assay: MTT growth assay in normal donor PBMCs; assay type: cell-based, human; details: 7.5, 15, 30 μM, 72 hours, MTT (FIG. 6C)
Experimental: as §2

[8] = test system: MM.1S cells; assay: Immunoblot of caspase-3 and PARP cleavage; assay type: cell-based, human; details: 15 μM (FIG. 6E)
[9] = test system: MM.1S cells; assay: Immunoblot of histone and α-tubulin acetylation in MM.1S cells; assay type: cell-based, human; details: 12 h, Compound 10 10 and 20 μM
[10] = test system: STAT3 acetylation in MM.1S cells; assay: Immunoprecipitation/immunoblot of STAT3 acetylation; assay type: cell-based, human; details: 20 μM, 18 hours (FIG. 6H)
Experimental: Whole-cell lysates were incubated with anti-STAT3, -JAK2, and -green fluorescent protein (GFP) Abs for 2 hours at 4° C., and then incubated with Protein A/G PLUS-Agarose® (Santa Cruz Biotechnology) overnight at 4° C. Anti-GFP Ab served as a control. Immune complexes were analyzed by immunoblotting with anti-STAT3, -JAK2, -acetylated-Lysine, and -phosphorylated-tyrosine Abs. […] Whole cell lysates were immunoprecipitated with anti-STAT3 Ab. Immunoprecipitates were then subjected to SDS-PAGE and immunoblotted with anti-Ac-K and -STAT3 Abs.

[11] = target: T1, HDAC6; assay: Western blot for acetylated alpha-tubulin (HDAC6 inhibition in cells); assay type: cell-based; details: 10 or 20 um (FIG. 8A)
[12] = test system: MM.1S xenograft; assay: Subcutaneous MM.1S murine xenograft model; assay type: in vivo; details: SCID mice
Experimental: CB17 SCID mice (48-54 days old) were purchased from Charles River Laboratories (Wilmington, Mass.). All animal studies were conducted according to protocols approved by the Animal Ethics Committee of the Dana-Farber Cancer Institute. After irradiation (200cGy), mice were subcutaneously injected with 5×10^6 MM.1S cells in the right flank. […] Tumor size was measured every three days, and tumor volume was calculated with the formula: V=0.5 (a×b^2), where “a” is the long diameter of the tumor and “b” is the short diameter of the tumor. Mice were sacrificed when the tumor reached 2 cm in length or 2 cm^3 volume, or if mice appeared moribund to prevent unnecessary morbidity. Survival was evaluated from the first day of the treatment until death. […] These SCID mice were subcutaneously injected with 5×10^6 MM.1S cells. […] Tumor volume was calculated from caliper measurements twice weekly, and data represent mean±SD (FIG. 9A).

[13] = test system: RPMI8226 cells; assay: Combination with carfilzomib, MTT assay; assay type: cell-based, human; details: RPMI8226, Compound 10 5, 10, 20 um + carfilzomib 3, 5, 7.5 nM, 24 h (FIG. 10)
Experimental: All experiments were performed 3 times in quadruplicate. Data represent mean+/−SD (FIG. 10). The y-axis (% control) indicates the relative number of viable cells after each treatment.

Chain of HDAC2 (Q92769 whole entry): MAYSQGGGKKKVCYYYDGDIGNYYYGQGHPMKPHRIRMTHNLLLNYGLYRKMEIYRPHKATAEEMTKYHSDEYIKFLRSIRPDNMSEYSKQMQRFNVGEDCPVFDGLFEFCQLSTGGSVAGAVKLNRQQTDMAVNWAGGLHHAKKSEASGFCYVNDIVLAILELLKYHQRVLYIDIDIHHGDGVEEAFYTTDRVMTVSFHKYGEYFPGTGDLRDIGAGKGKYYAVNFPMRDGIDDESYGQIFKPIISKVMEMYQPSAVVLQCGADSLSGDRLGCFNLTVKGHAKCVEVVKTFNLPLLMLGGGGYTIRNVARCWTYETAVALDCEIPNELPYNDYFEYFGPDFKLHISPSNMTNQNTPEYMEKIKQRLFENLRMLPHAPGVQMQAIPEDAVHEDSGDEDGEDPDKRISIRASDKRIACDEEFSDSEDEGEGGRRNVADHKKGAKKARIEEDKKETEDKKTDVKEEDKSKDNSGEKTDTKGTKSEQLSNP
Chain of HDAC1 (Q13547 whole entry): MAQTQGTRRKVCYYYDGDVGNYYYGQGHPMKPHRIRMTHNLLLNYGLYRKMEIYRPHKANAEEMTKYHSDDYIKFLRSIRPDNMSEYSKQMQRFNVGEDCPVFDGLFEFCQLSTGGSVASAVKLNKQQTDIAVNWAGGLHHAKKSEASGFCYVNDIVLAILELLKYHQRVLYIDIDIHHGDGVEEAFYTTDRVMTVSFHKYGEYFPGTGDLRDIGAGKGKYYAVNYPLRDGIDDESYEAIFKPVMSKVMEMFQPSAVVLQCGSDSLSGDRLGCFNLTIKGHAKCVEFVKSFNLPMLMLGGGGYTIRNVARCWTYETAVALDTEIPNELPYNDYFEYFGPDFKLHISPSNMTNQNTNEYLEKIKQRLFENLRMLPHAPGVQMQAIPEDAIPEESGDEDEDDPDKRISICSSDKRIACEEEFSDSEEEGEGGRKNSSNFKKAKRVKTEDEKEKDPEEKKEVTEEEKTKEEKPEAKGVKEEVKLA

## Nc1ccccc1NC(=O)c1cnccn1 [Compound 10, N-(2-aminophenyl)pyrazine-2-carboxamide]
[1]; Table 2, read-out: HDAC1
  IC50: 922 nM
[1]; Table 3, read-out: IC50 against the deacetylase activity of HDAC1
  IC50: 2000 nM
[2]; Table 2, read-out: HDAC2
  IC50: 1490 nM
[2]; Table 3, read-out: IC50 against the deacetylase activity of HDAC2
  IC50: 2200 nM
[3]; Table 2, read-out: HDAC6
  IC50: 79000 nM
[3]; Table 3, read-out: IC50 against the deacetylase activity of HDAC6
  IC50: > 20000 nM
[4]
  MM cell growth: significantly inhibited MM cell growth in a dose-dependent fashion
[5]; BG45 5 μM + bortezomib 2 nM
  CI (combination index): 1.04
[5]; BG45 5 μM + bortezomib 3 nM
  CI (combination index): 0.83
[5]; BG45 5 μM + bortezomib 4 nM
  CI (combination index): 0.84
[5]; BG45 10 μM + bortezomib 2 nM
  CI (combination index): 1.19
[5]; BG45 10 μM + bortezomib 3 nM
  CI (combination index): 0.78
[5]; BG45 10 μM + bortezomib 4 nM
  CI (combination index): 0.77
[5]; BG45 20 μM + bortezomib 2 nM
  CI (combination index): 0.91
[5]; BG45 20 μM + bortezomib 3 nM
  CI (combination index): 0.67
[5]; BG45 20 μM + bortezomib 4 nM
  CI (combination index): 0.63
[5]; RPMI8226, bortezomib 2-4 nM + 5, 10, 20 μM Compound 10, 24 h (FIG. 7D)
  bortezomib-induced cytotoxicity: synergistically enhanced bortezomib-induced cytotoxicity
[6]
  growth of patient-derived MM cells: potent growth inhibitory effect
[7]
  growth of normal donor PBMCs: without affecting normal donor PBMCs
[8]
  caspase-3/PARP cleavage (apoptosis): induces caspase-dependent apoptosis
[9]; LBH589 50 and 100 nM (FIG. 6F left)
  histone acetylation: significantly induced acetylation of histone H2A, H3, and H4
[9]; LBH589 50 and 100 nM (FIG. 6F right)
  α-tubulin acetylation (biomarker of HDAC6 inhibition): did not increase α-tubulin acetylation
[10]
  acetylation of STAT3: increased acetylation of STAT3
[11]
  inhibition of HDAC6 by acetylated alpha-tubulin Western blot: did not inhibit HDAC6
[12]; 15 and 50 mg/kg IP 5 days a week for 3 weeks, versus control, day 22 p<0.05 (FIG. 9A)
  MM tumor growth (tumor volume): significantly inhibited MM tumor growth
[12]; Compound 10 50 mg/kg + bortezomib 0.5 mg/kg sc twice a week, p<0.05
  tumor growth, combination with bortezomib: further enhanced either single agent activity
[13]
  cytotoxicity induced by carfilzomib: enhanced the cytotoxicity of carfilzomib
